Biological target: CB1 receptor (Rattus norvegicus, UniProt P20272)
Assay type: binding
Settings: rat brain membranes, PMSF; for CB1 receptor affinity (in words): qualitative statement

Chain of CB1 receptor (P20272 whole entry): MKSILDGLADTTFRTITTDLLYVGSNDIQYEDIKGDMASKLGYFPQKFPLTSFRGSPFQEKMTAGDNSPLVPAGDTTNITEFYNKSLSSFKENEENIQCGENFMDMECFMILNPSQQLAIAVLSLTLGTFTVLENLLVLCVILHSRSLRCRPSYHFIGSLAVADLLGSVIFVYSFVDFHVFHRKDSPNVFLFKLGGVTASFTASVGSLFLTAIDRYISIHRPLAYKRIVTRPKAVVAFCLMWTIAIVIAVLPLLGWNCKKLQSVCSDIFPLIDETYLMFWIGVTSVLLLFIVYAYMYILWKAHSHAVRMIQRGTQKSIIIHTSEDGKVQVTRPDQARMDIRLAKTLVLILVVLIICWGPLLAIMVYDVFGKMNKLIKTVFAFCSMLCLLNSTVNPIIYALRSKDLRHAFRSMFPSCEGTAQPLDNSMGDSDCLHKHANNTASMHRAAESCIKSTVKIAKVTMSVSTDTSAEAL

Compound | CB1 receptor affinity (in words) | fold lower CB1 affinity compared to 7d (relative to 7d)
C[C@H](CO)NC(=O)CCC/C=C\C/C=C\C/C=C\C/C=C\CCCCc1cccc2ccccc12 [7f] | loss of CB1 receptor affinity | 
C[C@H](CO)NC(=O)CCC/C=C\C/C=C\C/C=C\C/C=C\CCCCc1ccco1 [7q] | substantially weaker affinity | 
C[C@H](CO)NC(=O)CCC/C=C\C/C=C\C/C=C\C/C=C\CCCCCc1ccccc1 [7e] |  | over 5 fold
C[C@H](CO)NC(=O)CCC/C=C\C/C=C\C/C=C\C/C=C\CCCCc1ccc(Br)cc1 [7n] | most potent analog | 
